Data published in PubChem BioAssay (NCI).
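Tested at 5 concentrations; 48 h exposure; 96-well plates; endpoints linearly interpolated, else capped at highest concentration. GI50 is the concentration that inhibits growth by half. TGI: concentration producing complete growth inhibition.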

Key:
Assay in all cases: NCI anticancer screen, dose series, 48 h
A498 renal = test system: A498 renal
UO-31 renal = test system: UO-31 renal
SNB-19 CNS = test system: SNB-19 CNS
HT29 colon = test system: HT29 colon
CCRF-CEM leukemia = test system: CCRF-CEM leukemia
NCI-H23 lung = test system: NCI-H23 lung
CAKI-1 renal = test system: CAKI-1 renal
OVCAR-3 ovarian = test system: OVCAR-3 ovarian
SK-MEL-28 melanoma = test system: SK-MEL-28 melanoma
OVCAR-8 ovarian = test system: OVCAR-8 ovarian
NCI-H522 lung = test system: NCI-H522 lung

Structure (SMILES)	GI50 (A498 renal)	TGI (A498 renal)	GI50 (UO-31 renal)	TGI (UO-31 renal)	GI50 (SNB-19 CNS)	TGI (SNB-19 CNS)	GI50 (HT29 colon)	TGI (HT29 colon)	GI50 (CCRF-CEM leukemia)	TGI (CCRF-CEM leukemia)	GI50 (NCI-H23 lung)	TGI (NCI-H23 lung)	GI50 (CAKI-1 renal)	TGI (CAKI-1 renal)	GI50 (OVCAR-3 ovarian)	TGI (OVCAR-3 ovarian)	GI50 (SK-MEL-28 melanoma)	TGI (SK-MEL-28 melanoma)	TGI (OVCAR-8 ovarian)	TGI (NCI-H522 lung)
CCCC(C)c1ccc(OCCCCCCN2CCNCC2)cc1 (centres undefined)	2.43 µM	9.33 µM	4.32 µM	20.3 µM	3.2 µM	13.6 µM	1.66 µM	3.74 µM	2.44 µM	7.46 µM	2.13 µM	5.62 µM	1.99 µM	4.45 µM	1.78 µM	3.87 µM	1.84 µM	3.65 µM		
O=C1C=C(C2OC(CO)C(O)C2O)C(=O)N1 (centres undefined)		> 100 µM		> 100 µM		> 100 µM		> 100 µM		> 89.5 µM		> 100 µM				> 100 µM		> 100 µM	> 100 µM	38.5 µM
CN(C)CCNC(=O)c1cccc2c(=O)c3ccccc3oc12		52.8 µM		55 µM		97.7 µM		98.7 µM		> 100 µM		> 100 µM				> 100 µM		> 100 µM	> 83.5 µM	
O=C(c1ccccc1)c1ccc2n[se]nc2c1		> 100 µM		> 100 µM		> 100 µM		> 100 µM		> 100 µM		> 100 µM		> 100 µM				> 100 µM	> 100 µM	> 100 µM
CC(=O)C(C(c1ccccc1)N1CCOCC1)N1CCOCC1 (centres undefined)		> 100 µM		> 100 µM		> 100 µM		> 100 µM		> 100 µM		> 100 µM		> 100 µM		> 100 µM		> 100 µM	> 100 µM	> 100 µM
CCOP(=Nc1ccc(N(C)C)cc1)(OCC)OCC		> 100 µM		> 100 µM		> 100 µM						> 100 µM		> 100 µM		> 100 µM		> 100 µM	> 100 µM	> 100 µM
CC1=C2C(O)C(C(C)C(=O)N(C)C)CCC2(C)C=CC1=O (centres undefined)		> 100 µM		> 100 µM		> 100 µM		> 100 µM		> 100 µM		> 100 µM		> 100 µM		> 100 µM		> 100 µM	> 100 µM	> 100 µM
Cc1ccc(S(=O)(=O)Nc2cccc3c(=O)[nH]cnc23)cc1		> 100 µM		> 100 µM		> 100 µM		> 100 µM		> 100 µM		> 100 µM		> 100 µM		> 100 µM		> 100 µM	> 100 µM	> 100 µM
